Biological target: T1, TRPC4 channels (Homo sapiens, UniProt Q9UBN4)
T1 construct: expressed in transfected cells; host or cells: HEK293
T1 sequence (Q9UBN4 1-977): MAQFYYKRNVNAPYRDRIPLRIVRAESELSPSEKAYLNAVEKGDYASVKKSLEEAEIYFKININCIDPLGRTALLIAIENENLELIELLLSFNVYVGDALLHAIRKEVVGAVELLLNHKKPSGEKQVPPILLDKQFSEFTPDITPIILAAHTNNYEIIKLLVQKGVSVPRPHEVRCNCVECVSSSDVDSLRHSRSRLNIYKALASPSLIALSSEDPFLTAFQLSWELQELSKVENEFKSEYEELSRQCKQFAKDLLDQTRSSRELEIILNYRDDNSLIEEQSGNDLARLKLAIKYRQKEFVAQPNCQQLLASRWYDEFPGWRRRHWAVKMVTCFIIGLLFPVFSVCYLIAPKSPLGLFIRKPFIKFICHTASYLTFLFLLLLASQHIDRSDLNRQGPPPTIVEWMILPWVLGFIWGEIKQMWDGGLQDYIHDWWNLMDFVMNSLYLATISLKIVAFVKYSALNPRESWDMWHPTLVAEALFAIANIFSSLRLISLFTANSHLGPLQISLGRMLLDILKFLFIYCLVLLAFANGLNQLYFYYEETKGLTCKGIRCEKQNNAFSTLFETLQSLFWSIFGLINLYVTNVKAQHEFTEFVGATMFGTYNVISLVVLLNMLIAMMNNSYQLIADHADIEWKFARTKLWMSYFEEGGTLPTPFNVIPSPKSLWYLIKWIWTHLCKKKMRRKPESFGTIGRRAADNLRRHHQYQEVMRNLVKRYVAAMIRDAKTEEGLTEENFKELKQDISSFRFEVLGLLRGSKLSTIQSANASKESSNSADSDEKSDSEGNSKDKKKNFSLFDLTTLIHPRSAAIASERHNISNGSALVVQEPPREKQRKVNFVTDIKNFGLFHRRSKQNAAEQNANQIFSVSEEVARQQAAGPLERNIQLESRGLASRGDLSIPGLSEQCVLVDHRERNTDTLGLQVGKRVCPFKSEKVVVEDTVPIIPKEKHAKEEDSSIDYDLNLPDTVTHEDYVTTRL
Test: TRP Family FLIPR Assay, TRPC4
Format: cell-based
Details: HEK293 cells
Method: The compound of Example 5 was tested for selectivity against a panel of Human TRP family ion channels in a TRP Family FLIPR Assay as described below. • 1. TRPC3 channels (human TRPC3 variant 1 gene, expressed in HEK293 cells). • 2. TRPC4 channels (human TRPC4 gene, expressed in HEK293 cells). • 3. TRPC5 channels (human TRPC5 gene, expressed in HEK293 cells). • 4. TRPC6 channels (human TRPC6 gene, expressed in HEK293 cells). • 5. TRPM2 channels (human TRPM2 gene, transiently expressed in HEK293 cells). • 6. TRPM3 channels (human TRPM3 gene, transiently expressed in HEK293 cells). • 7. TRPM4 channels (human TRPM4 gene, expressed in CHO cells). • 8. […]
Data acquisition was performed via the FLIPR Control software supplied with the FLIPR System (MDS-AT) and data was analyzed using Microsoft Excel (Microsoft Corp., Redmond, WA) or GraphPad Prism. […]
[formula] where Base is the response at low concentrations of test article, Max is the maximum response at high concentrations, xhalf the EC50, or IC50, the concentration of test article producing either half-maximal activation or inhibition, and rate is the Hill coefficient. […] No assumptions about the fit parameters was made; the fit parameters were determined by the algorithm.
The effect of each test article was evaluated at eight (8) concentrations: 0.003, 0.01, 0.03, 0.1, 0.3, 1, 3 and 10 μM, n≤4 wells/concentration). […]

CC(C)(O)c1cnc(N2C[C@@]3(CC[C@@H](F)[C@](C)(Cn4cnc5ccc(C#N)cc54)C3)OC2=O)cn1 (single isomer, unassigned) [Example 5]
EC50 (agonist mode, vs EMAX of (−)-Englerin A 30 μM, read-out: EC50 hTRPC4): > 10 µM
IC50 (antagonist mode, activated with 0.5 μM (−)-Englerin A, 0.003-10 μM, read-out: IC50 hTRPC4): > 1 µM

From patent US12391683B2, “Therapeutic compounds and methods” (Actio Biosciences, Inc., priority 2022, dated 2025)
